Laboratory results reported in PubChem BioAssay (NCI).
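Cells were grown in 96-well plates and exposed to each compound for 48 hours at five concentrations; endpoints were interpolated linearly between bracketing concentrations, or set to the highest concentration if not reached. TGI: concentration producing complete growth inhibition.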

Key:
Experiment in all cases: growth of human tumour cells (NCI), 48 h
786-0 renal = test system: 786-0 renal
HL-60(TB) leukemia = test system: HL-60(TB) leukemia
SK-OV-3 ovarian = test system: SK-OV-3 ovarian
SN12C renal = test system: SN12C renal
A498 renal = test system: A498 renal
OVCAR-4 ovarian = test system: OVCAR-4 ovarian
ACHN renal = test system: ACHN renal
OVCAR-8 ovarian = test system: OVCAR-8 ovarian
PC-3 prostate = test system: PC-3 prostate
NCI/ADR-RES ovarian = test system: NCI/ADR-RES ovarian
IGROV1 ovarian = test system: IGROV1 ovarian
SF-295 CNS = test system: SF-295 CNS
UACC-257 melanoma = test system: UACC-257 melanoma
COLO 205 colon = test system: COLO 205 colon
M14 melanoma = test system: M14 melanoma
NCI-H226 lung = test system: NCI-H226 lung
MOLT-4 leukemia = test system: MOLT-4 leukemia
HCT-116 colon = test system: HCT-116 colon
SNB-75 CNS = test system: SNB-75 CNS
SW-620 colon = test system: SW-620 colon
OVCAR-3 ovarian = test system: OVCAR-3 ovarian
MDA-MB-231 breast = test system: MDA-MB-231 breast
MCF7 breast = test system: MCF7 breast
TK-10 renal = test system: TK-10 renal
CCRF-CEM leukemia = test system: CCRF-CEM leukemia
SK-MEL-5 melanoma = test system: SK-MEL-5 melanoma
BT-549 breast = test system: BT-549 breast
T-47D breast = test system: T-47D breast
SF-268 CNS = test system: SF-268 CNS
MDA-MB-435 = test system: MDA-MB-435
EKVX NSCLC = test system: EKVX NSCLC
HS 578T breast = test system: HS 578T breast
A549 NSCLC = test system: A549 NSCLC
OVCAR-5 ovarian = test system: OVCAR-5 ovarian
HOP-92 NSCLC = test system: HOP-92 NSCLC
RPMI-8226 leukemia = test system: RPMI-8226 leukemia
SR leukemia = test system: SR leukemia
RXF 393 renal = test system: RXF 393 renal
KM12 colon = test system: KM12 colon
HCT-15 colon = test system: HCT-15 colon
CAKI-1 renal = test system: CAKI-1 renal
SF-539 CNS = test system: SF-539 CNS
MALME-3M melanoma = test system: MALME-3M melanoma
UACC-62 melanoma = test system: UACC-62 melanoma
MDA-N = test system: MDA-N
NCI-H23 lung = test system: NCI-H23 lung
HT29 colon = test system: HT29 colon
NCI-H460 lung = test system: NCI-H460 lung
SNB-19 CNS = test system: SNB-19 CNS
LOX IMVI melanoma = test system: LOX IMVI melanoma
NCI-H522 lung = test system: NCI-H522 lung
U251 CNS = test system: U251 CNS
K-562 leukemia = test system: K-562 leukemia
HOP-62 NSCLC = test system: HOP-62 NSCLC
DU-145 prostate = test system: DU-145 prostate
UO-31 renal = test system: UO-31 renal
SK-MEL-28 melanoma = test system: SK-MEL-28 melanoma
SK-MEL-2 melanoma = test system: SK-MEL-2 melanoma
HCC-2998 colon = test system: HCC-2998 colon

Question: Which TGI (786-0 renal) does the source give for Nc1ccc(-c2nc3ccccc3s2)cc1C#Cc1ccccc1 here?
Answer: 32.3 µM

Question: What about the TGI (HL-60(TB) leukemia) of the same compound?
Answer: 62.1 µM

Question: What about the TGI (SK-OV-3 ovarian) of the same compound?
Answer: 60.7 µM

Question: And the TGI (SN12C renal)?
Answer: 37.1 µM

Question: And the TGI (A498 renal)?
Answer: 42.5 µM

Question: What about the TGI (OVCAR-4 ovarian) of the same compound?
Answer: 44 µM

Question: What about the TGI (ACHN renal) of the same compound?
Answer: 38.5 µM

Question: And the TGI (OVCAR-8 ovarian)?
Answer: 42.4 µM

Question: And the TGI (PC-3 prostate)?
Answer: 45.4 µM

Question: What about the TGI (NCI/ADR-RES ovarian) of the same compound?
Answer: 48.6 µM

Question: What about the TGI (IGROV1 ovarian) of the same compound?
Answer: 28.4 µM

Question: What about the TGI (SF-295 CNS) of the same compound?
Answer: 47.1 µM

Question: What about the TGI (UACC-257 melanoma) of the same compound?
Answer: 31.3 µM

Question: What about the TGI (COLO 205 colon) of the same compound?
Answer: 31 µM

Question: And the TGI (M14 melanoma)?
Answer: 30.6 µM

Question: And the TGI (NCI-H226 lung)?
Answer: 49.2 µM

Question: And the TGI (MOLT-4 leukemia)?
Answer: > 100 µM

Question: And the TGI (HCT-116 colon)?
Answer: 27.4 µM

Question: And the TGI (SNB-75 CNS)?
Answer: 59.7 µM

Question: And the TGI (SW-620 colon)?
Answer: 34.7 µM

Question: And the TGI (OVCAR-3 ovarian)?
Answer: 33.1 µM

Question: And the TGI (MDA-MB-231 breast)?
Answer: 47.8 µM

Question: What about the TGI (MCF7 breast) of the same compound?
Answer: 19.2 µM

Question: And the TGI (TK-10 renal)?
Answer: 30.3 µM

Question: And the TGI (CCRF-CEM leukemia)?
Answer: 93.2 µM

Question: What about the TGI (SK-MEL-5 melanoma) of the same compound?
Answer: 31.1 µM

Question: And the TGI (BT-549 breast)?
Answer: 34.7 µM

Question: And the TGI (T-47D breast)?
Answer: > 100 µM

Question: And the TGI (SF-268 CNS)?
Answer: 54.2 µM

Question: What about the TGI (MDA-MB-435) of the same compound?
Answer: 36 µM

Question: What about the TGI (EKVX NSCLC) of the same compound?
Answer: 39.8 µM

Question: And the TGI (HS 578T breast)?
Answer: 50.2 µM

Question: And the TGI (A549 NSCLC)?
Answer: 49 µM

Question: What about the TGI (OVCAR-5 ovarian) of the same compound?
Answer: 54.5 µM

Question: What about the TGI (HOP-92 NSCLC) of the same compound?
Answer: 52.8 µM

Question: And the TGI (RPMI-8226 leukemia)?
Answer: 47.2 µM

Question: And the TGI (SR leukemia)?
Answer: > 100 µM

Question: What about the TGI (RXF 393 renal) of the same compound?
Answer: 34.6 µM

Question: What about the TGI (KM12 colon) of the same compound?
Answer: 37.9 µM

Question: And the TGI (HCT-15 colon)?
Answer: 38.2 µM

Question: And the TGI (CAKI-1 renal)?
Answer: 37.2 µM

Question: And the TGI (SF-539 CNS)?
Answer: 35.4 µM

Question: And the TGI (MALME-3M melanoma)?
Answer: 28.5 µM

Question: And the TGI (UACC-62 melanoma)?
Answer: 33.9 µM

Question: What about the TGI (MDA-N) of the same compound?
Answer: 35.8 µM

Question: What about the TGI (NCI-H23 lung) of the same compound?
Answer: 52.6 µM

Question: And the TGI (HT29 colon)?
Answer: 35.4 µM

Question: And the TGI (NCI-H460 lung)?
Answer: 35.1 µM

Question: And the TGI (SNB-19 CNS)?
Answer: 72.1 µM

Question: What about the TGI (LOX IMVI melanoma) of the same compound?
Answer: 36 µM

Question: What about the TGI (NCI-H522 lung) of the same compound?
Answer: 34.2 µM

Question: What about the TGI (U251 CNS) of the same compound?
Answer: 38.6 µM

Question: What about the TGI (K-562 leukemia) of the same compound?
Answer: 84.4 µM

Question: And the TGI (HOP-62 NSCLC)?
Answer: 28.2 µM

Question: And the TGI (DU-145 prostate)?
Answer: 72.5 µM

Question: And the TGI (UO-31 renal)?
Answer: 36.7 µM

Question: Which TGI (786-0 renal) does the source give for COc1c2c(cc3c1C1(O)Cc4ccc5c(c4C[N+]1(C)CC3)OCO5)OCO2 (centres undefined) here?
Answer: > 100 µM

Question: And the TGI (HL-60(TB) leukemia)?
Answer: > 100 µM

Question: And the TGI (SK-OV-3 ovarian)?
Answer: > 100 µM

Question: And the TGI (SN12C renal)?
Answer: > 100 µM

Question: And the TGI (A498 renal)?
Answer: > 100 µM

Question: And the TGI (OVCAR-4 ovarian)?
Answer: > 100 µM

Question: And the TGI (ACHN renal)?
Answer: > 100 µM

Question: And the TGI (OVCAR-8 ovarian)?
Answer: > 100 µM

Question: And the TGI (PC-3 prostate)?
Answer: > 100 µM

Question: And the TGI (NCI/ADR-RES ovarian)?
Answer: > 100 µM

Question: What about the TGI (IGROV1 ovarian) of the same compound?
Answer: > 100 µM

Question: What about the TGI (SF-295 CNS) of the same compound?
Answer: > 100 µM

Question: And the TGI (UACC-257 melanoma)?
Answer: > 100 µM

Question: What about the TGI (COLO 205 colon) of the same compound?
Answer: > 100 µM

Question: And the TGI (M14 melanoma)?
Answer: > 100 µM

Question: What about the TGI (NCI-H226 lung) of the same compound?
Answer: > 100 µM

Question: And the TGI (MOLT-4 leukemia)?
Answer: > 100 µM

Question: What about the TGI (HCT-116 colon) of the same compound?
Answer: > 100 µM

Question: What about the TGI (SNB-75 CNS) of the same compound?
Answer: > 100 µM

Question: And the TGI (SW-620 colon)?
Answer: > 100 µM

Question: What about the TGI (OVCAR-3 ovarian) of the same compound?
Answer: > 100 µM

Question: What about the TGI (MDA-MB-231 breast) of the same compound?
Answer: > 100 µM

Question: And the TGI (SK-MEL-28 melanoma)?
Answer: > 100 µM

Question: And the TGI (MCF7 breast)?
Answer: > 100 µM

Question: What about the TGI (TK-10 renal) of the same compound?
Answer: > 100 µM

Question: And the TGI (CCRF-CEM leukemia)?
Answer: > 100 µM

Question: And the TGI (SK-MEL-5 melanoma)?
Answer: > 100 µM

Question: What about the TGI (BT-549 breast) of the same compound?
Answer: > 100 µM

Question: What about the TGI (T-47D breast) of the same compound?
Answer: > 100 µM

Question: What about the TGI (SF-268 CNS) of the same compound?
Answer: > 100 µM

Question: And the TGI (MDA-MB-435)?
Answer: > 100 µM

Question: What about the TGI (EKVX NSCLC) of the same compound?
Answer: > 100 µM

Question: What about the TGI (HS 578T breast) of the same compound?
Answer: > 100 µM

Question: What about the TGI (A549 NSCLC) of the same compound?
Answer: > 100 µM

Question: What about the TGI (OVCAR-5 ovarian) of the same compound?
Answer: > 100 µM

Question: And the TGI (HOP-92 NSCLC)?
Answer: > 100 µM

Question: What about the TGI (RPMI-8226 leukemia) of the same compound?
Answer: > 100 µM

Question: And the TGI (SR leukemia)?
Answer: > 100 µM

Question: And the TGI (SK-MEL-2 melanoma)?
Answer: > 100 µM

Question: And the TGI (RXF 393 renal)?
Answer: > 100 µM

Question: What about the TGI (KM12 colon) of the same compound?
Answer: > 100 µM

Question: What about the TGI (HCT-15 colon) of the same compound?
Answer: > 100 µM

Question: What about the TGI (CAKI-1 renal) of the same compound?
Answer: > 100 µM

Question: And the TGI (SF-539 CNS)?
Answer: > 100 µM

Question: And the TGI (MALME-3M melanoma)?
Answer: > 100 µM

Question: And the TGI (UACC-62 melanoma)?
Answer: > 100 µM

Question: And the TGI (MDA-N)?
Answer: > 100 µM

Question: What about the TGI (NCI-H23 lung) of the same compound?
Answer: > 100 µM

Question: What about the TGI (HT29 colon) of the same compound?
Answer: > 100 µM

Question: And the TGI (NCI-H460 lung)?
Answer: > 100 µM

Question: And the TGI (SNB-19 CNS)?
Answer: > 100 µM

Question: And the TGI (LOX IMVI melanoma)?
Answer: > 100 µM

Question: And the TGI (NCI-H522 lung)?
Answer: > 100 µM

Question: And the TGI (U251 CNS)?
Answer: > 100 µM

Question: And the TGI (K-562 leukemia)?
Answer: > 100 µM

Question: What about the TGI (HOP-62 NSCLC) of the same compound?
Answer: > 100 µM

Question: And the TGI (HCC-2998 colon)?
Answer: > 100 µM

Question: What about the TGI (DU-145 prostate) of the same compound?
Answer: > 100 µM
